Assay results taken from patent US7348413B2, “Cancerous disease modifying antibodies” (Arius Research Inc., priority 2004, dated 2008).

Tested on: PC-3, LnCap and CCD-27sk
Conditions: 5 days
Protocol: In conjunction with testing for antibody binding the cytotoxic effect of the hybridoma supernatants were tested in the same cell lines: PC-3, LnCap and CCD-27sk. The Live/Dead cytotoxicity assay was obtained from Molecular Probes (Eu, OR). The assays were performed according to the manufacturer's instructions with the changes outlined below. Cells were plated before the assay at the predetermined appropriate density. After 2 days, 100 μl of supernatant from the hybridoma microtitre plates were transferred to the cell plates and incubated in a 5 percent CO2 incubator for 5 days. […] After 5 days of treatment, the plates were then emptied by inverting and blotting dry. Room temperature DPBS (Dulbecco's phosphate buffered saline) containing MgCl2 and CaCl2 was dispensed into each well from a multichannel squeeze bottle, tapped 3 times, emptied by inversion and then blotted dry. 50 μl of the fluorescent calcein dye diluted in DPBS containing MgCl2 and CaCl2 was added to each well and incubated at 37° C. in a 5% CO2 incubator for 30 minutes. The plates were read in a Perkin-Elmer HTS7000 fluorescence plate reader and the data was analyzed in Microsoft Excel.

SMILES | cytotoxicity of positive controls
[N-]=[N+]=[N-] [NaN3, sodium azide] | generally produced cytotoxicity as expected
C[C@@H]1C[C@@H]([C@H](O)CC2CC(=O)NC(=O)C2)C(=O)[C@@H](C)C1 [cycloheximide] | generally produced cytotoxicity as expected
